# According to PMC4474691, “Leukemia-Associated Mutations in Nucleophosmin Alter Recognition by CRM1: Molecular Basis of Aberrant Transport” (PLoS ONE, 2015):
# *1 amine or outer side, *2 acyl side, *3 side chain or, on linkers, in order; H or OH if unused. Where a SMILES comes first, the peptide text is derived from it. Bridges are numbered along the chain shown (N, C = ends). Roman numbers before positions name the chains, in order. Where no end group is shown, it is not given here. [ ]: non-standard residue; d: D form. Actinocin(9to1) = Cc1c2oc3c(C)ccc(C(=O)[*:1])c3nc-2c(C(=O)[*:2])c(N)c1=O; NMeV = CN[C@H](C(=O)O)C(C)C; Sar = CNCC(=O)O
# What was measured:
# [1] = test system: Myc-NPM in HEK293T cells; test: Localization of Myc-NPM in HEK293T cells; format: cell-based, human
# Procedure: (§1) Cell culture, transfection, treatment and imaging
# (§2) Human embryonic kidney 293T (HEK293T) and HeLa cells (ECACC) were grown in Dulbecco’s modified Eagle’s medium, supplemented with 10% fetal bovine serum, 100 units/ml penicillin and 100 μg/ml streptomycin (all from Invitrogen). The cells were seeded onto sterile glass coverslips in 12-well trays 24 h before transfection. Transfections were carried out with XtremeGENE 9 (Roche) following the manufacturer’s protocol. Treatment of cells with the different drugs was done at the indicated final concentrations and time periods: Actinomycin D (ActD, Sigma) at 5 μg / mL for 3 h, and hydroxyurea (HU, Sigma) at 4 mM for 24 h.
# Cells were fixed, either 20 or 42 h after transfection, with 3.7% formaldehyde in PBS for 30 min, then treated with 0.2% Triton X-100 in PBS for 10 min, for membrane permeabilization and incubated for 1 h in blocking solution (3% BSA in PBS). In YFP-CRM1 overexpression experiments, endogenous NPM was detected with anti-B23 (Santa Cruz Biotechnology FC82291, dilution 1:800), Myc3-NPM with anti-Myc (Cell Signalling 2276, dilution 1:2000) and Flag-SurvNLS with anti-Flag (Sigma F1704, dilution 1:300). Primary antibodies were diluted in blocking solution. In all cases, the secondary antibody was Alexa Fluor 594 anti-mouse (Invitrogen A11005, dilution 1:400). […] Slides were examined using a Zeiss Axioskop fluorescence microscope. […]
# [2] = test system: endogenous NPM in HEK293T cells; test: Localization of endogenous NPM in HEK293T cells; format: cell-based, human
# Procedure: as §1, §2
# Cells were fixed, either 20 or 42 h after transfection, with 3.7% formaldehyde in PBS for 30 min, then treated with 0.2% Triton X-100 in PBS for 10 min, for membrane permeabilization and incubated for 1 h in blocking solution (3% BSA in PBS). In YFP-CRM1 overexpression experiments, endogenous NPM was detected with anti-B23 (Santa Cruz Biotechnology FC82291, dilution 1:800), Myc3-NPM with anti-Myc (Cell Signalling 2276, dilution 1:2000) and Flag-SurvNLS with anti-Flag (Sigma F1704, dilution 1:300). Primary antibodies were diluted in blocking solution. In all cases, the secondary antibody was Alexa Fluor 594 anti-mouse (Invitrogen A11005, dilution 1:400). Washing between the different steps were carried out with PBS. […] Slides were examined using a Zeiss Axioskop fluorescence microscope. For quantification, at least 200 cells were “blind counted” and classified as having nuclear (or nucleolar), nuclear/cytoplasmic or cytoplasmic localization of NPM (or the Flag-SurvNLS control). […]
# Fig 2 Localization of endogenous and ectopically expressed NPM and effect of treatment with actinomycin D (ActD) and CRM1 overexpression in HEK293T cells. […] Green denotes YFP (Y) or YFP-CRM1 (YC) fluorescence; red, immunostaining of endogenous NPM; and blue, DAPI fluorescence. […] More than 200 cells were “blind” counted. […] (D) Quantification of cytoplasmic (C) or nuclear and cytoplasmic (N/C) localization of overexpressed Flag-SurvNLS and Myc-NPM. […]
# [3] = target: T1, CRM1^HA (Mus musculus, UniProt Q6P5F9, L431A/V430A/V432A); test: Isothermal titration calorimetry, CRM1^HA / NES; format: binding; conditions: for binding response: titrated onto CRM1^HA, result in words
# T1 construct: His-ZZ (cleaved yes); made in house; host or cells: Escherichia coli BL21-CodonPlus (DE3)
# T1 sequence (Q6P5F9 1-1062 V430A/L431A/V432A limits assumed): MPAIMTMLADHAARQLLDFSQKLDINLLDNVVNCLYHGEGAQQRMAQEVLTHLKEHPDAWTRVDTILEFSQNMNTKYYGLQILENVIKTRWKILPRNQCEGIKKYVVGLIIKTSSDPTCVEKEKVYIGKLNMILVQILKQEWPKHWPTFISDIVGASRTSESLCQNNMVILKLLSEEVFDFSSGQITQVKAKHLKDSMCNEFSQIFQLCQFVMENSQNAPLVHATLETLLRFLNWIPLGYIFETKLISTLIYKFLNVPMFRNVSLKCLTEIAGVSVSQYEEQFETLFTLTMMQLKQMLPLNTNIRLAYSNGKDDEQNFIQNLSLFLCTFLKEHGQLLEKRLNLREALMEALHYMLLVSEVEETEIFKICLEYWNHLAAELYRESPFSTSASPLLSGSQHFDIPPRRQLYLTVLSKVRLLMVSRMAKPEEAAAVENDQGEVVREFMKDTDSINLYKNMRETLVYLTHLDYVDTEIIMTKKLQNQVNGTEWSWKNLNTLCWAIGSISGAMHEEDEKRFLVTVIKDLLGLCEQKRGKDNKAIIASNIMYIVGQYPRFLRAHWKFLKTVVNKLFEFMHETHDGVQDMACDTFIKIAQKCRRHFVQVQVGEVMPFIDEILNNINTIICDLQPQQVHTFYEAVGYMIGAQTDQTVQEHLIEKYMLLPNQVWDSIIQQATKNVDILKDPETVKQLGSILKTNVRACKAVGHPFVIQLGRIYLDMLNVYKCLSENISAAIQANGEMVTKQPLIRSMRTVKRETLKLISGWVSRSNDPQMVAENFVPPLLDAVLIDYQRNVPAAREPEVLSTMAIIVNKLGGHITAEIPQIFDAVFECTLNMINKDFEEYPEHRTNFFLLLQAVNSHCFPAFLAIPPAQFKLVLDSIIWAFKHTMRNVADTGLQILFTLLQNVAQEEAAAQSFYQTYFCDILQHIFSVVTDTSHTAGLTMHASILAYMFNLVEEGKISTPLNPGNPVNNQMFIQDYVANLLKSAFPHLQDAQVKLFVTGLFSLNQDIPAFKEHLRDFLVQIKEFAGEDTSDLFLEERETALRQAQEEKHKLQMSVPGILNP
# Procedure: Isothermal titration calorimetry (ITC)
# ITC measurements were carried out using a VIP-ITC MicroCalorimeter (MicroCal, Inc., Northampton, MA). TFP and YFP constructs, as well as CRM1^HA, were dialyzed in a buffer containing 20 mM HEPES, pH 7.4, 50 mM NaCl, 1 mM TCEP, 1 mM MgCl2, and degassed prior to the experiment. Untagged peptides (AS: QDLCLAVEEVSLRK, AL: EAIQDLCLAVEEVSLRK, ES: QDLWQSLAQVSLRK and EL: EAIQDLWQSLAQVSLRK), N-acetylated and 95% pure, were purchased from Proteogenix (Schiltigheim, France) and resuspended in the ITC buffer. Measurements were performed at 20°C. TFP-NES, YFP-NES or NES peptides at 35–180 μM were titrated onto CRM1^HA at 2–14 μM. Injections of 6 μL were performed at 320 seconds interval (the first injection always was of 1 μL and is not considered in data analysis). To determine the thermodynamic parameters of NPM / importin interaction, importin α, importin Δα or importin α/β at 45–60 μM were titrated onto NPM (1–1.2 μM pentamer) in 50 mM Tris/HCl, pH 7.5, 100 mM NaCl, 2 mM TCEP, and 10% glycerol. […] “Reverse” titrations, where 20–30 μM NPM was titrated onto 7–10 μM of the different importins were also performed and yielded similar results.
# The reaction heat of each injection is related to the calorimetric enthalpy of binding, ΔH^0. The binding isotherms, ΔH^0 vs. molar ratio, were analyzed with an independent binding sites model using MicroCal Origin software. The fit of the binding curve yields the binding constant KA (KD = 1/KA) and the enthalpy ΔH^0 of the binding reaction. The Gibbs free energy of binding ΔG^0 and the entropy ΔS^0 are determined from the basic thermodynamic expressions: ΔG^0 = -RTlnKA = ΔH^0−TΔS^0, where R and T are the gas constant and the absolute temperature, respectively.
# Fig 5 Analysis of CRM1^HA/TFP-NES interaction by ITC. Isothermal titration of CRM1^HA with TFP-mutE(NES). […] The titration of negative control TFP-Cter (180 μM) onto CRM1^HA (14 μM) (circles) is also shown for comparison.
# [4] = target: T1, CRM1^HA; test: Fluorescence anisotropy binding assay, CRM1^HA; conditions: 0–60 μM CRM1^HA, 25°C
# Procedure: Fluorescence anisotropy binding assays
# To estimate CRM1 binding affinities for NES motifs we monitored binding with a fluorescence-polarization assay based on previously described approaches. The increase in fluorescence anisotropy of TFP/YFP when the TFP/YFP-NES construct (50 nM) binds to 0–60 μM CRM1 (either CRM^HA or wild type) was recorded at 25°C with a 8100 SLM-Aminco spectrofluorometer in buffer 20 mM Tris/HCl, pH 7.4, 50 mM NaCl, 5 mM DTT, 2 mM MgCl2. Excitation and emission wavelengths were 463, 500 nm for TFP and 463, 533 nm for YFP, and slits width 4 and 8 nm, respectively.
# Fig 4 Binding of CRM1 to TFP-NES constructs. (A) Scheme of the engineered TFP constructs, showing the sequence of the NES motifs. Φ residues are highlighted in red. (B) Titration of CRM1 onto the different TFP constructs (50 nM), at 25°C, in buffer 20 mM Tris/HCl, pH 7.4, 50 mM NaCl, 5 mM DTT, 2 mM MgCl2: Left panel: Binding of CRM1^HA (solid symbols) or wild type CRM1 (empty symbols) to TFP-PKI(NES). Right panel: Binding of CRM1^HA to TFP-mutE(NES) (triangles) and TFP-mutA(NES) (squares). Fraction bound was calculated from the relative increase in fluorescence anisotropy of TFP (λexc 463 nm, λem 500 nm). Error bars correspond to at least three measurements per CRM1 concentration.
# We next used the TFP-(NES) constructs to monitor CRM1^HA binding to each motif, using the change in fluorescence anisotropy upon complex formation as a readout (Fig 4B), as previously described. […] The different nature of the fluorescent tag, and/or the linker between the fluorescent protein and the NES (2 residues longer in the YFP-PKI construct) could explain the discrepancy. […] To isolate the CRM1 / NES interaction under study from the influence of the tag protein, we have also conducted binding assays with peptides corresponding to the NES motifs (see below).
# [5] = test system: nuclear export; conditions: in vivo nuclear export assay; cited from earlier work
# Excerpt: Two sequence motifs in the core domain of NPM (residues 42–61 and 94–102) (Fig 1) have been investigated as candidate NESs. In addition, we have detected a further putative NES in the C-terminal region (see below). However, it is still unclear to what extent any of these sequences represents NPM physiological NESs. […] It is therefore not surprising that NPM deregulation is associated to cancer. NPM is overexpressed in several solid tumors (such as gastric, colon, ovarian, prostate cancer). In addition, small insertions and translocations affecting NPM1 gene, encoding NPM, are characteristic of certain hematological disorders. In fact, NPM1 is the most frequently mutated gene in adult acute myeloid leukemia (AML). […] The higher affinity of mutE(NES) for CRM1^HA is consistent with its stronger export activity previously observed using in vivo nuclear export assays. […] Thus, the ranking of in vitro CRM1^HA affinity (PKI(NES) (KD 579 n ...
# [6] = ITC, NES ligand (35–180 μM) titrated onto CRM1^HA (2–14 μM), 20°C, 20 mM HEPES pH 7.4, 50 mM NaCl, 1 mM TCEP, 1 mM MgCl2, independent binding sites model, read-out: KD
# [7] = TFP/YFP-NES construct 50 nM, 20 mM Tris/HCl pH 7.4, 50 mM NaCl, 5 mM DTT, 2 mM MgCl2, at least three measurements per CRM1 concentration, read-out: apparent KD (C50)
molecule,measurement,setting,value
"Cc1c2oc3c(C)ccc(C(=O)N[C@@H]4C(=O)N[C@H](C(C)C)C(=O)N5CCC[C@H]5C(=O)N(C)CC(=O)N(C)[C@@H](C(C)C)C(=O)O[C@@H]4C)c3nc-2c(C(=O)N[C@@H]2C(=O)N[C@H](C(C)C)C(=O)N3CCC[C@H]3C(=O)N(C)CC(=O)N(C)[C@@H](C(C)C)C(=O)O[C@@H]2C)c(N)c1=O [ActD, actinomycin D] (I: T[dV]P[Sar][NMeV] / II: T[dV]P[Sar][NMeV]; ester I:1-I:C, II:1-II:C; linker I:N-II:N via Actinocin(9to1))",cells with nuclear/cytoplasmic localization of Myc-NPM,"[1]; YFP-CRM1 co-expression and ActD (5 μg/mL, 3 h), >200 cells counted",33%
same,cytoplasmic localization of endogenous NPM,"[2]; HEK293T expressing YFP-CRM1, ActD 5 μg/mL 3 h where ActD",a further increase was observed
same,nuclear/cytoplasmic localization of endogenous NPM,"[2]; YFP-transfected HEK293T, ActD 5 μg/mL 3 h, no CRM1 overexpression","does not affect, however, the amount of cells displaying nuclear/cytoplasmic localization of NPM"
"DLWQWRKSL [TFP-Cter, negative control construct containing the last 9 C-terminal residues of wild type NPM]",binding response,"[3]; ITC, 20°C, 20 mM HEPES pH 7.4","small exothermic peaks (Fig 5), which may reflect a non-specific binding"
"NC(=O)NO [HU, hydroxyurea]","cells with cytoplasmic relocation of Myc-NPM, YFP-CRM1 co-expression with HU","[1]; YFP-CRM1 co-expression, hydroxyurea 4 mM 24 h (increase from 20%)",50%
same,effect of HU on endogenous NPM localization,[2]; hydroxyurea 4 mM 24 h (data not shown),could not be observed on endogenous NPM
"QDLCLAVEEVSLRK [peptide AS, short version of the NES motif of mutant A]",binding response,"[3]; ITC, 20°C, 20 mM HEPES pH 7.4",showed no binding in our conditions
Ac-QDLWQSLAQVSLRK [peptide ES],Kd,[3]; [6],76 ± 1 nM
"LALKLAGLDI [PKI(NES), in b48 the value is that of TFP-PKI(NES), reference compound]",Kd,[4]; [7],579 nM
"DLWQSLAQVSLRK [TFP-mutE(NES), NES of NPM mutant E as C-terminal fusion to teal fluorescent protein]",Kd,"[4]; TFP-NES 50 nM, pH 7.4, rounded, read-out: apparent KD",2200 nM
same,Kd,[4]; [7],2160 ± 556 nM
same,Kd,[3]; [6],1040 ± 41 nM
same,ΔH,"[3]; ITC, NES ligand titrated onto CRM1^HA, 20°C, 20 mM HEPES pH 7.4",-15.4 ± 3.1 kcal/mol
same,-TΔS,"[3]; ITC, NES ligand titrated onto CRM1^HA, 20°C, 20 mM HEPES pH 7.4, from ΔG = ΔH − TΔS",7.4 ± 3.1 kcal/mol
same,n (binding stoichiometry),"[3]; ITC, NES ligand titrated onto CRM1^HA, 20°C, 20 mM HEPES pH 7.4, low n of peptides might result from limited solubility",0.80 ± 0.19
same,ΔG,"[3]; ITC, NES ligand titrated onto CRM1^HA, 20°C, 20 mM HEPES pH 7.4, ΔG = -RTlnKA",-8.0 ± 0.0 kcal/mol
same,Kd,"[3]; ITC, TFP-NES titrated onto CRM1^HA, 20°C, 20 mM HEPES pH 7.4, rounded, read-out: KD",1000 nM
Ac-EAIQDLWQSLAQVSLRK [peptide EL],Kd,[3]; [6],31 ± 1 nM
"94–102: candidate NES motif in the core domain of NPM (ITPPVVLRL; UniProt P06748 94-102, looked up, fragment)",NES export activity in cells,[5],border-line activity
"DLWQSLAQVSLRK [mutE(NES), acquired NES motif of AML-associated NPM mutant E]",NES export activity in cells,[5],"much higher than that of mutant A NES, and comparable to the export activity of PKI(NES)"
same,"relative affinity for CRM1^HA, mutant E NES vs mutant A NES","[3]; anisotropy, ITC with TFP constructs and ITC with untagged peptides",approximately double that of mutant A
Ac-EAIQDLCLAVEEVSLRK [peptide AL],Kd,[3],57 ± 10 nM
"residues 42–49: candidate NES motif in the core domain of NPM (LSLRTVSL; UniProt P06748 42-49, looked up, fragment)",NES export activity in cells,[5],border-line activity
